Experimental findings from patent publication US7196110B2, “N-substituted tricyclic 3-aminopyrazoles as inhibitors for the treatment of cell proliferative disorders” (Janssen Phamaceutica N.V., priority 2002, dated 2007) are described below.

pIC50: −log10 of the molar value. Like-named read-outs stand apart in the source and are kept apart here.

The target in one assay is c-Abl kinase (Abelson murine leukemia virus, UniProt P00521). As to the kind of experiment: Inhibition of c-Abl kinase activity (cell-free, Abl peptide substrate, 33P Flashplate). Format: biochemical. The note with it: IC50 for the c-Abl kinase activity.
c-Abl kinase, sequence (P00521 115-385): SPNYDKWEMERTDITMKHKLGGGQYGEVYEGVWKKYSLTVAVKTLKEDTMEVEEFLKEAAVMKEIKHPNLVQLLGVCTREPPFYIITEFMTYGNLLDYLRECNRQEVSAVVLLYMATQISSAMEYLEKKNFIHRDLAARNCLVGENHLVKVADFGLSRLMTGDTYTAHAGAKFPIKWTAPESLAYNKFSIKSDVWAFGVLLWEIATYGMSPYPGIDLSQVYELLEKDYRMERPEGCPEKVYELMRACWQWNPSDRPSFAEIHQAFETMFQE
Assay [1] deals with human umbilical vein endothelial cells (HUVEC). As to the kind of experiment: Anti-cell proliferation in normal cells in the absence of PDGF stimulation (BrdU incorporation). The class given is cell-based. The note with it: read-out: IC50 on cell proliferation, HUVEC (LSGS). As to the method:
The effect of compounds of the invention on cell proliferation in normal human primary cell, in particular, human umbilical vein endothelial cells (HUVEC), in the absence of PDGF stimulation was tested based on incorporation of BrdU into DNA of cells.
The following materials were purchased from their respective sources: HUVEC cells from Cascade Biologics, Cat No: C-015-10C; Medium 200 from Cascade Biologics, Cat No: M-200-500; Low serum growth supplements (LSGS) from Cascade Biologics, Cat No: S-003-10; F12-K medium from Gibco/BRL, Cat No: 21127-022; BrdU kit from Roche, Cat No: 1 647 229; and Trypsin/EDTA solution from Cascade Biologics, Cat No: R-001-100.
For propigation, HUVEC cells were grown in M-200 medium supplemented with LSGS. For studies, cells were detached with Trypsin/EDTA solution and washed three times with 10 mL of F12K (LS, low serum) medium and then centrifuged at 400×G for 5 minutes. F-12K (LS) medium is F-12K medium containing 0.2% heat-treated fetal bovine serum.
Cell concentration was adjusted to about 5×10^4 cells/mL in F-12K (LS) medium, and 200 μl (approx. 1×10^4 cells) were added to each well of a 96-well plate. Cells were then incubated for 16 to 20 hours at 37° C. under 95% air/5% CO2 to allow the cells to attach and become quiescent.
Cell proliferation was stimulated by adding 50 μL of a 1:10 dilution of LSGS in F12K (LS). Maximum-stimulated control wells were prepared by adding 50 μl of a 1:10 dilution of LSGS. Zero control wells contained 50 SL of F-12K (LS) medium only. Test compounds in 100% DMSO were added at a volume of 2.5 μl to achieve the desired final drug concentration. Replicates of eight wells per condition were tested. Cells were incubated at 37° C. overnight. On the next day 25 μL of BrdU (1:100 dilution of stock in F-12K (LS) medium) was added to each well.
Cells were incubated for an additional 20–24 hours. The medium was removed and the cells were fixed by adding 200 μL of FixDent solution (included in the BrdU kit) to each well and then incubated at room temperature for an additional 30 minutes. FixDent was removed by flicking and blotting the plates, and 100 μL of anti-BrdU-POD (included in the BrdU kit) diluted at a 1:100 dilution in antibody dilution solution (included in the BrdU kit) was added to each well. The diluted anti-BrdU-POD solution was prepared shortly before use. The plates were incubated at room temperature for 90 minutes.
The unbound antibody was removed by washing three times with Wash Solution (200 uL per wash). Wash Solution was prepared by making a 1:10 dilution of Wash Buffer Stock (included in the BrdU kit) with distilled water. Substrate solution (included in the BrdU kit) (100 uL) was added to each well and incubated for an additional 30–40 minutes. Plates were then read at 405 nm on a 96-well plate reader.
In order to test the potency of inhibition of the present compound, IC50 of an individual compound on the inhibition of PDGF-BB independent HUVEC proliferation was measured using the above procedure. As used herein, said IC50 refers to the concentration of the test compound at which the amount of HUVEC proliferation is reduced by one-half as compared to the maximum growth control wells without the compound.
(In general: Incorporation of labelled thymidine or its analogues reports DNA synthesis.)

As to `COc1ccc2c(c1)-c1n[nH]c(Nc3ccccc3)c1C2` [Compound 39, (7-Methoxy-2,4-dihydro-indeno[1,2-c]pyrazol-3-yl)-phenyl-amine], at c-Abl kinase, the pIC50 was 7.89. In the case of `Cc1ccc2c(c1)-c1n[nH]c(Nc3ccccc3)c1C2` [Compound 22, (7-Methyl-2,4-dihydro-indeno[1,2-c]pyrazol-3-yl)-phenyl-amine], the pIC50 in assay [1] (LSGS, PDGF-BB independent) was 5.67; on c-Abl kinase, 7.72. Taken in the same sequence, the figures for `COc1cccc(Nc2[nH]nc3c2Cc2cc4c(cc2-3)OCO4)c1` [Compound 97, (2,9-Dihydro-5,7-dioxa-2,3-diaza-cyclopenta[a]-s-indacen-1-yl)-(3-methoxy-phenyl)-amine] were 5.72 and 6.64. The corresponding values for `CN1CCN(c2ccc3c(c2)Cc2c-3n[nH]c2Nc2cccc(Br)c2)CC1` [Compound 122, (3-Bromo-phenyl)-[6-(4-methyl-piperazin-1-yl)-2,4-dihydro-indeno[1,2-c]pyrazol-3-yl]-amine] are 6.65 and 5.90.

In the case of `COc1cc2c(cc1OC)-c1n[nH]c(NCc3cc(Cl)ccc3Cl)c1C2` [Compound 330, (2,5-Dichloro-benzyl)-(6,7-dimethoxy-2,4-dihydro-indeno[1,2-c]pyrazol-3-yl)-amine], the pIC50 was 7.31 in assay [1] (LSGS, PDGF-BB independent) and 7.04 on c-Abl kinase. Take `COc1cc2c(cc1OC)-c1n[nH]c(NCc3ccccc3)c1C2` [Compound 63, Benzyl-(6,7-dimethoxy-2,4-dihydro-indeno[1,2-c]pyrazol-3-yl)-amine]: the pIC50 is 5.61 in assay [1] (LSGS, PDGF-BB independent) and 6.38 at c-Abl kinase. `COC(=O)c1cccc(Nc2[nH]nc3c2Cc2cc(OCCCN4CCCC4)c(OC)cc2-3)c1` [Compound 157, 3-[7-Methoxy-6-(3-pyrrolidin-1-yl-propoxy)-2,4-dihydro-indeno[1,2-c]pyrazol-3-ylamino]-benzoic acid methyl ester]: the pIC50 in assay [1] (LSGS, PDGF-BB independent) is 6.66; at c-Abl kinase it was 6.43.

`COc1cc2c(cc1OC)-c1n[nH]c(Nc3cccnc3)c1C2` [Compound 30, (6,7-Dimethoxy-2,4-dihydro-indeno[1,2-c]pyrazol-3-yl)-pyridin-3-yl-amine]: the pIC50 in assay [1] (LSGS, PDGF-BB independent) is less than 6.00; at c-Abl kinase, 6.31. In the case of `COC(=O)c1cccc(Nc2[nH]nc3c2Cc2cc(OC)c(OC)cc2-3)c1` [Compound 11, 3-(6,7-Dimethoxy-2,4-dihydro-indeno[1,2-c]pyrazol-3-ylamino)-benzoic acid methyl ester], the pIC50 in assay [1] (LSGS, PDGF-BB independent) is 8.70; on c-Abl kinase, 6.93. Taken in the same sequence, the figures for `COc1cc2c(cc1OC)-c1n[nH]c(Nc3ccccc3F)c1C2` [Compound 12, (6,7-Dimethoxy-2,4-dihydro-indeno[1,2-c]pyrazol-3-yl)-(2-fluoro-phenyl)-amine] were 7.51 and 7.70. For `COc1cc2c(cc1OC)-c1n[nH]c(Nc3cccc(F)c3)c1C2` [Compound 14, (3-Fluoro-phenyl)-(6,7-dimethoxy-2,4-dihydro-indeno[1,2-c]pyrazol-3-yl)-amine], the pIC50 in assay [1] is 5.31. As for `COc1cc2c(cc1OC)-c1c(c(Nc3cccc(F)c3)nn1C(=O)CO)C2` [Compound 432, 1-[3-(3-Fluoro-phenylamino)-6,7-dimethoxy-4H-indeno[1,2-c]pyrazol-1-yl]-2-hydroxy-ethanone], at c-Abl kinase, the pIC50 is 7.02.
